In patent US4515941A, “23-Demycinosyldesmycosin derivatives” (Toyo Jozo Kabushiki Kaisha, priority 1982, dated 1985):
Values after ≈ are worked out from the molar mass of the structure shown. Read-outs that look alike come from different tables or passages of the source.

Legend:
Type in all cases: cell-based
Salmonella typhosa H901 = experiment: MIC, Salmonella typhosa H901
[1] = tested on: Staphylococcus aureus MS353 A0; experiment: MIC, Staphylococcus aureus MS353 A0 (macrolide resistant); conditions: MS353A0, macrolide resistant bacteria A group
Description: (§1) *macrolide resistant bacteria A group (clinical isolates of erythromycin,
(§2) oleandomycin and 16membered macrolide antibiotic resistant strains.)

[2] = tested on: Staphylococcus epidermis sp-al-1; experiment: MIC, Staphylococcus epidermis sp-al-1
[3] = tested on: Staphylococcus aureus ATCC 6538P; experiment: MIC, Staphylococcus aureus ATCC 6538P; conditions: ATCC6538P
Proteus vulgaris OX19 = experiment: MIC, Proteus vulgaris OX19
[4] = tested on: Staphylococcus aureus MS353; experiment: MIC, Staphylococcus aureus MS353
Shigella sonnei E33 = experiment: MIC, Shigella sonnei E33
[5] = tested on: Streptococcus pyogenes N.Y.5; experiment: MIC, Streptococcus pyogenes N.Y.5
[6] = tested on: Streptococcus pyogenes 1022; experiment: MIC, Streptococcus pyogenes 1022 (macrolide resistant); conditions: macrolide resistant bacteria A group
Description: as §1, §2

[7] = tested on: Klebsiella pneumoniae ATCC 10031; experiment: MIC, Klebsiella pneumoniae ATCC 10031
[8] = tested on: Escherichia coli NIHJ-JC2; experiment: MIC, Escherichia coli NIHJ-JC2; conditions: NIHJJC2
[9] = tested on: Streptococcus agalactiae 1020; experiment: MIC, Streptococcus agalactiae 1020
[10] = tested on: Bacillus subtilis ATC 6633; experiment: MIC, Bacillus subtilis ATC 6633
[11] = tested on: Pseudomonas aeruginosa IAM 1095; experiment: MIC, Pseudomonas aeruginosa IAM 1095; conditions: IAM1095
[12] = tested on: Streptococcus faecalis 1501; experiment: MIC, Streptococcus faecalis 1501
Sarcina lutea ATCC 9341 = experiment: MIC, Sarcina lutea ATCC 9341; conditions: Micrococcus luteus, ATCC9341
Escherichia coli B = experiment: MIC, Escherichia coli B
[13] = tested on: Staphylococcus aureus MS353 C36; experiment: MIC, Staphylococcus aureus MS353 C36; conditions: MS353C36
[14] = tested on: Salmonella enteritidis Gaertner; experiment: MIC, Salmonella enteritidis Gaertner; conditions: Salmonella enterica, ENTERITIDIS
[15] = tested on: Shigella flexineri type 3a; experiment: MIC, Shigella flexineri type 3a; conditions: TYPE3A
[16] = tested on: Corynebacterium diptheriae P.Y.8; experiment: MIC, Corynebacterium diptheriae P.Y.8
[17] = tested on: Micrococcus flavus ATCC 10240; experiment: MIC, Micrococcus flavus ATCC 10240; conditions: Micrococcus flavus, ATCC10240
Serratia marcescens = experiment: MIC, Serratia marcescens
[18] = tested on: Staphylococcus aureus 0127; experiment: MIC, Staphylococcus aureus 0127 (macrolide resistant); conditions: Staphylococcus aureus 0127; macrolide resistant bacteria A group; read-out: MIC
Description: as §1, §2

[19] = SPAL1, Staphylococcus epidermis sp-al-1, read-out: MIC
[20] = Proteus vulgaris OX19, read-out: MIC
[21] = Staphylococcus aureus MS353, read-out: MIC
[22] = Streptococcus pyogenes 1022, read-out: MIC
[23] = ATCC10031, Klebsiella pneumoniae ATCC 10031, read-out: MIC
[24] = Streptococcus agalactiae 1020, read-out: MIC
[25] = ATC6633, Bacillus subtilis ATC 6633, read-out: MIC
[26] = Pseudomonas aeruginosa IAM 1095, read-out: MIC
[27] = Enterococcus faecalis, Streptococcus faecalis 1501, read-out: MIC
[28] = Proteus vulgaris, OX19, Proteus vulgaris OX19
[29] = Klebsiella pneumoniae, ATCC10031, Klebsiella pneumoniae ATCC 10031
[30] = Bacillus subtilis, ATC6633, Bacillus subtilis ATC 6633
[31] = Enterococcus faecalis, 1501, Streptococcus faecalis 1501
[32] = Corynebacterium diptheriae P.Y.8, read-out: MIC

SMILES	MIC (Salmonella typhosa H901; Salmonella enterica, TYPHOSA) [µg/mL]	MIC [1] [µg/mL]	MIC [2, 19] [µg/mL]	MIC ([3]; read-out: MIC) [µg/mL]	MIC (Proteus vulgaris OX19; [20]) [µg/mL]	MIC [4, 21] [µg/mL]	MIC (Shigella sonnei E33) [µg/mL]	MIC ([5]; read-out: MIC) [µg/mL]	MIC [6, 22] [µg/mL]	MIC [7, 23] [µg/mL]	MIC [8] [µg/mL]	MIC [9, 24] [µg/mL]	MIC [10, 25] [µg/mL]	MIC [11, 26] [µg/mL]	MIC [12, 27] [µg/mL]	MIC (Sarcina lutea ATCC 9341) [µg/mL]	MIC [16, 32] [µg/mL]	other results
CCC1OC(=O)CC(O)C(C)C(OC2OC(C)C(O)C(N(C)C)C2O)C(CC=O)CC(C)C(=O)C=CC(C)=CC1CSC(C)c1ccccc1 (stereo not drawn) [23-(1-phenylethyl)thio-23-demycinosyl-23-deoxydesmycosin]	100 (≈ 139 µM)	25 (≈ 34.8 µM)	≤ 0.05	0.2 (≈ 0.279 µM)	12.5 (≈ 17.4 µM)	0.2 (≈ 0.279 µM)	50 (≈ 69.6 µM)	≤ 0.05	25 (≈ 34.8 µM)	3.1 (≈ 4.32 µM)	50 (≈ 69.6 µM)	0.1 (≈ 0.139 µM)	0.2 (≈ 0.279 µM)	> 100	0.2 (≈ 0.279 µM)	0.05 (≈ 0.0696 µM)		
CC[C@H]1OC(=O)[C@H](C)[C@@H](O[C@H]2C[C@@](C)(OC)[C@@H](O)[C@H](C)O2)[C@H](C)[C@@H](O[C@@H]2O[C@H](C)C[C@H](N(C)C)[C@H]2O)[C@](C)(O)C[C@@H](C)C(=O)[C@H](C)[C@@H](O)[C@]1(C)O [EM, erythromycin, reference compound]	100 (≈ 136 µM)						100 (≈ 136 µM)				100 (≈ 136 µM)					≤ 0.05		MIC (Salmonella typhosa H901): 50 µg/mL (≈ 68.1 µM); MIC (Escherichia coli B): > 100 µg/mL; MIC [13]: 0.4 µg/mL (≈ 0.545 µM); MIC (Proteus vulgaris OX19; Proteus vulgaris OX19): 25 µg/mL (≈ 34.1 µM); MIC (Proteus vulgaris OX19; [28]): 50 µg/mL (≈ 68.1 µM); MIC [14]: 100 µg/mL (≈ 136 µM); MIC [7, 29]: 6.3 µg/mL (≈ 8.58 µM); MIC [10, 30]: 0.1 µg/mL (≈ 0.136 µM); MIC [15]: 12.5 µg/mL (≈ 17 µM); MIC ([16]; Corynebacterium, P.Y.8): ≤ 0.05 µg/mL; MIC ([11]; Pseudomonas aeruginosa): 100 µg/mL (≈ 136 µM); MIC [17]: 0.1 µg/mL (≈ 0.136 µM); MIC [12, 31]: 0.2 µg/mL (≈ 0.273 µM); MIC (Serratia marcescens): 100 µg/mL (≈ 136 µM)
CCC1OC(=O)CC(O)C(C)C(OC2OC(C)C(O)C(N(C)C)C2O)C(CC=O)CC(C)C(=O)C=CC(C)=CC1COC(c1ccccc1)(c1ccccc1)c1ccccc1 (stereo not drawn) [OC(C6 H5)3, 23-O-triphenylmethyl-23-demycinosyldesmycosin]	> 100	6.3 (≈ 7.5 µM)	1.6 (≈ 1.9 µM)	1.6 (≈ 1.9 µM)	> 100	1.6 (≈ 1.9 µM)	> 100	0.8 (≈ 0.952 µM)	3.1 (≈ 3.69 µM)	> 100	> 100	1.6 (≈ 1.9 µM)	3.1 (≈ 3.69 µM)	> 100	1.6 (≈ 1.9 µM)	0.4 (≈ 0.476 µM)	0.1 (≈ 0.119 µM)	MIC [18]: 25 µg/mL (≈ 29.8 µM)
CCC1OC(=O)CC(O)C(C)C(OC2OC(C)C(O)C(N(C)C)C2O)C(CC=O)CC(C)C(=O)C=CC(C)=CC1COCc1ccccc1 (stereo not drawn) [OCH 2 C6 H5, 23-O-benzyl-23-demycinosyldesmycosin]	100 (≈ 145 µM)	50 (≈ 72.7 µM)	≤ 0.05	≤ 0.05	3.1 (≈ 4.51 µM)	≤ 0.05	25 (≈ 36.3 µM)	≤ 0.05	3.1 (≈ 4.51 µM)	6.3 (≈ 9.16 µM)	25 (≈ 36.3 µM)	≤ 0.05	≤ 0.05	50 (≈ 72.7 µM)	0.05 (≈ 0.0727 µM)	≤ 0.05	≤ 0.05	MIC [18]: 100 µg/mL (≈ 145 µM)
CCC1OC(=O)CC(O)C(C)C(OC2OC(C)C(O)C(N(C)C)C2O)C(CC=O)CC(C)C(=O)C=CC(C)=CC1CSCCc1ccccc1 (stereo not drawn) [S(CH2)2 C6 H5, 23-(2-phenylethyl)thio-23-demycinosyl-23-deoxydesmycosin]	> 100	50 (≈ 69.6 µM)	≤ 0.05	0.1 (≈ 0.139 µM)	12.5 (≈ 17.4 µM)	0.1 (≈ 0.139 µM)	25 (≈ 34.8 µM)	≤ 0.05		3.1 (≈ 4.32 µM)	50 (≈ 69.6 µM)	≤ 0.05	0.1 (≈ 0.139 µM)	> 100	0.1 (≈ 0.139 µM)	≤ 0.05		MIC ([6]; Streptococcus pyogenes, 1022, Streptococcus pyogenes 1022): 25 µg/mL (≈ 34.8 µM)
CCC1OC(=O)CC(O)C(C)C(OC2OC(C)C(O)C(N(C)C)C2O)C(CC=O)CC(C)C(=O)C=CC(C)=CC1CSc1ccccc1 (stereo not drawn) [SC6 H5]	50 (≈ 72.5 µM)	25 (≈ 36.2 µM)	≤ 0.05	0.1 (≈ 0.145 µM)	12.5 (≈ 18.1 µM)	0.1 (≈ 0.145 µM)	50 (≈ 72.5 µM)	≤ 0.05	25 (≈ 36.2 µM)	1.6 (≈ 2.32 µM)	50 (≈ 72.5 µM)	≤ 0.05	0.1 (≈ 0.145 µM)	100 (≈ 145 µM)	≤ 0.05	≤ 0.05	≤ 0.05	
CCC1OC(=O)CC(O)C(C)C(OC2OC(C)C(O)C(N(C)C)C2O)C(CC=O)CC(C)C(=O)C=CC(C)=CC1CSCc1ccccc1 (stereo not drawn) [SCH2 C6 H5, 23-benzylthio-23-demycinosyl-23-deoxydesmycosin]	50 (≈ 71 µM)	50 (≈ 71 µM)	≤ 0.05	≤ 0.05	6.3 (≈ 8.95 µM)	≤ 0.05	25 (≈ 35.5 µM)	≤ 0.05		1.6 (≈ 2.27 µM)	50 (≈ 71 µM)	≤ 0.05	0.1 (≈ 0.142 µM)	100 (≈ 142 µM)	≤ 0.05	≤ 0.05	≤ 0.05	
CC[C@H]1OC(=O)C[C@@H](O)[C@H](C)[C@@H](O[C@@H]2O[C@H](C)[C@@H](O[C@H]3C[C@@](C)(O)[C@@H](O)[C@H](C)O3)[C@H](N(C)C)[C@H]2O)[C@@H](CC=O)C[C@@H](C)C(=O)/C=C/C(C)=C/[C@@H]1CO[C@@H]1O[C@H](C)[C@@H](O)[C@@H](OC)[C@H]1OC [TS, tylosin, reference compound]	> 100						> 100									≤ 0.05		MIC ([2]; Staphylococcus, SPAL1, Staphylococcus epidermis sp-al-1): 0.4 µg/mL (≈ 0.437 µM); MIC [13]: 0.4 µg/mL (≈ 0.437 µM); MIC ([3]; Staphylococcus aureus): 0.8 µg/mL (≈ 0.873 µM); MIC (Proteus vulgaris OX19; [28]): > 100 µg/mL; MIC [14]: > 100 µg/mL; MIC ([4]; Staphylococcus aureus, MS353, Staphylococcus aureus MS353): 0.8 µg/mL (≈ 0.873 µM); MIC [5]: 0.1 µg/mL (≈ 0.109 µM); MIC ([7]; Klebsiella pneumoniae ATCC 10031): 100 µg/mL (≈ 109 µM); MIC [7, 29]: 50 µg/mL (≈ 54.6 µM); MIC ([9]; Streptococcus agalactiae 1020): 0.4 µg/mL (≈ 0.437 µM); MIC ([9]; Streptococcus agalactiae, 1020, Streptococcus agalactiae 1020): 0.2 µg/mL (≈ 0.218 µM); MIC [10, 30]: 0.2 µg/mL (≈ 0.218 µM); MIC [15]: 50 µg/mL (≈ 54.6 µM); MIC ([16]; Corynebacterium, P.Y.8): ≤ 0.05 µg/mL; MIC ([11]; Pseudomonas aeruginosa): > 100 µg/mL; MIC [17]: ≤ 0.05 µg/mL; MIC [12, 31]: 0.8 µg/mL (≈ 0.873 µM); MIC ([12]; Streptococcus faecalis 1501): 1.6 µg/mL (≈ 1.75 µM); MIC (Serratia marcescens): > 100 µg/mL
